Experiments:
[1] = biological target: T1, chitin synthase 2 of Saccharomyces cerevisiae ECY38-38A(pAS6) (Saccharomyces cerevisiae, UniProt P14180); assay: In vitro enzyme assay for chitin synthase 2 of Saccharomyces cerevisiae (enzyme 2); assay type: biochemical; conditions: relative to polyoxin D (50% inhibitory activity = value 5)
T1 construct: made in house; host or cells: Saccharomyces cerevisiae ECY38-38A (chs1-23 chs2::LEU2 cal1/csd2) carrying plasmid pAS6, grown in galactose medium; 130,000 x g membrane pellet
T1 sequence (P14180 whole entry): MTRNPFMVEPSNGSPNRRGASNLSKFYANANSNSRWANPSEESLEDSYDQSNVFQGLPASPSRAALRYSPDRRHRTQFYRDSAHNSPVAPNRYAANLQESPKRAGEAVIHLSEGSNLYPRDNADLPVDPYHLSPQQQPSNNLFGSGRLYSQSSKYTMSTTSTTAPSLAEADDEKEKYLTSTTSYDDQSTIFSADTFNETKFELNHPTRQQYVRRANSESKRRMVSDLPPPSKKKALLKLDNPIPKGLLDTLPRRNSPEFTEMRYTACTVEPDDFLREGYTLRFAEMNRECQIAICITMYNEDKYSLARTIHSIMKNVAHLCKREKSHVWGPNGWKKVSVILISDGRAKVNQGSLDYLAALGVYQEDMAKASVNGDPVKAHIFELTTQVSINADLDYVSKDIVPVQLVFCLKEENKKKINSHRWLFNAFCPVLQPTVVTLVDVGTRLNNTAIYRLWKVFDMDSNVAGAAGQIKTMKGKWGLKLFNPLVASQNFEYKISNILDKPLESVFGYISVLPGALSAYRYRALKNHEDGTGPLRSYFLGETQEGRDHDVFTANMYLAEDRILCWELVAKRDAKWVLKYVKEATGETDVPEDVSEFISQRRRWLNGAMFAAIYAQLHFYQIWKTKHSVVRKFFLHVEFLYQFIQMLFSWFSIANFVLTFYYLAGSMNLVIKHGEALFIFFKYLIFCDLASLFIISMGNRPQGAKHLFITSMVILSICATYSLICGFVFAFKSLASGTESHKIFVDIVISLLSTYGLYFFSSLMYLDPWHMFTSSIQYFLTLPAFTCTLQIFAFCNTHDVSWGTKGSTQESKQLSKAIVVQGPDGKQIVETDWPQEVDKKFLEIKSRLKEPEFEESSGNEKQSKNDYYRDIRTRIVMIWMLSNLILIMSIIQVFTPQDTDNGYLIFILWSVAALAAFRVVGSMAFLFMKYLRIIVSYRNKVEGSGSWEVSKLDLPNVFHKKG
Summary of the method: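 Values are scores: 5 means 50% inhibition at the same concentration as polyoxin D, lower scores 2- to 16-fold higher concentration, higher scores ½ to ⅛. Radiolabel from 1.1 mM UDP-[14C]-GlcNAc was incorporated into TCA-insoluble chitin over 90 min at 30 °C (pH 7.5 Tris, 2 mM Co2+). The enzyme was a trypsin-activated membrane fraction from CHS2-only S. cerevisiae ECY38-38A(pAS6).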

[2] = tested on: Candida tropicalis ATCC 13803; assay: In vitro antifungal activity (MIC), NCCLS method; assay type: cell-based; conditions: 48 hours
Summary of the method: (§1)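 ATCC reference strains tested by NCCLS MIC method. Final inoculum 5×10^2 to 2.5×10^3 cell/mL over a two-fold dilution series; 48 h incubation.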

[3] = tested on: Candida albicans ATCC 10231; assay: In vitro antifungal activity (MIC), NCCLS method; assay type: cell-based; conditions: 48 hours
Summary of the method: as §1

[4] = tested on: Candida glabrata ATCC 48435; assay: In vitro antifungal activity (MIC), NCCLS method; assay type: cell-based; conditions: Candida glabrata ATCC 48435; 48 hours
Summary of the method: as §1

[5] = tested on: Candida parapsilosis ATCC 34136; assay: In vitro antifungal activity (MIC), NCCLS method; assay type: cell-based; conditions: Candida parapsilosis ATCC 34136; 48 hours
Summary of the method: as §1

[6] = tested on: Cryptococcus neoformans ATCC 36556; assay: In vitro antifungal activity (MIC), NCCLS method; assay type: cell-based; conditions: RPMI 1640 medium, 72 hours
Summary of the method: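 Broth microdilution per NCCLS: two-fold serial dilutions of test compound inoculated with fungal suspension at a final 5×10^2 to 2.5×10^3 cell/mL. Strains other than Cryptococcus neoformans were incubated 48 hours before MIC reading.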

[7] = tested on: Candida krusei ATCC 6258; assay: In vitro antifungal activity (MIC), NCCLS method; assay type: cell-based; conditions: 48 hours
Summary of the method: as §1

[8] = tested on: Aspergillus flavus ATCC 64025; assay: In vitro antifungal activity (MIC), NCCLS method; assay type: cell-based; conditions: 48 hours
Summary of the method: as §1

[9] = tested on: Candida lusitaniae ATCC 42720; assay: In vitro antifungal activity (MIC), NCCLS method; assay type: cell-based; conditions: 48 hours
Summary of the method: as §1

[10] = tested on: Aspergillus terreus ATCC 46941; assay: In vitro antifungal activity (MIC), NCCLS method; assay type: cell-based; conditions: 48 hours
Summary of the method: as §1

[11] = tested on: Aspergillus fumigatus ATCC 16424; assay: In vitro antifungal activity (MIC), NCCLS method; assay type: cell-based; conditions: 48 hours
Summary of the method: as §1

[12] = tested on: Mucor ramosissimus ATCC 90286; assay: In vitro antifungal activity (MIC), NCCLS method; assay type: cell-based; conditions: 48 hours
Summary of the method: as §1

[13] = tested on: Candida albicans A207 (clinical isolate); assay: In vitro antifungal activity (MIC), NCCLS method; assay type: cell-based; conditions: 48 hours
Summary of the method: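 According to NCCLS guidance, each compound is diluted two-fold and challenged with a fungal inoculum of 5×10^2 to 2.5×10^3 cell/mL (final). Incubation lasts 48 hours.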

[14] = biological target: T2, chitin synthase 1 of Candida albicans chs2 Δ chs 3 Δ (Candida albicans, UniProt P23316); assay: In vitro enzyme assay for chitin synthase 1 of Candida albicans (enzyme 1); assay type: biochemical; conditions: relative to polyoxin D (50% inhibitory activity = value 5)
T2 construct: Crude enzyme was prepared using the Candida albicans chs2 Δ chs 3 Δ mutant; endogenous in cells; host or cells: Candida albicans chs2Δ/chs2Δ chs3Δ/chs3Δ mutant; 130,000 x g membrane pellet
T2 sequence (P23316 whole entry, stated change not applied): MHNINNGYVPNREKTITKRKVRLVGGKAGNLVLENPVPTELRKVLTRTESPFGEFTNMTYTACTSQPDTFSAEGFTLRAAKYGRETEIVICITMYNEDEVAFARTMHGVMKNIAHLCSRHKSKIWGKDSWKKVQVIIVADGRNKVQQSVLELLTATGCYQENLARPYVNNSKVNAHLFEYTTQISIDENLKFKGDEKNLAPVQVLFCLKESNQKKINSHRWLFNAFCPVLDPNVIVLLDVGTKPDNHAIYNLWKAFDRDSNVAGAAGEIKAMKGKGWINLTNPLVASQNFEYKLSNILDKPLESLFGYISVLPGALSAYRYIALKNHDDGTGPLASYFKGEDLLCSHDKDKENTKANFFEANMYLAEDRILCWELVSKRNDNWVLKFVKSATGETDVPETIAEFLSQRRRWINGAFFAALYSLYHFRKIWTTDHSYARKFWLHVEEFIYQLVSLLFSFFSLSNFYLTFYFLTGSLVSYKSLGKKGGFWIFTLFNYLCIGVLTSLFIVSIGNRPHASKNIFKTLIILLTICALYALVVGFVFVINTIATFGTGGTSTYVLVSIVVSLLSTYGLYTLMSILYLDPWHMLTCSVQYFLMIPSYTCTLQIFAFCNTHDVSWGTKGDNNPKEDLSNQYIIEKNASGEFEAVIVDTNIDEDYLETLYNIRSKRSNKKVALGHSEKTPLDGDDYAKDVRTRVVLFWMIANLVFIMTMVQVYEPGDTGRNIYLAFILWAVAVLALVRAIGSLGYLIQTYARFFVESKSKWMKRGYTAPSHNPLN
Summary of the method: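 Trypsin-activated crude membrane chitin synthase 1 from C. albicans chs2Δ chs3Δ was incubated 90 min at 30 °C with 1.1 mM UDP-[14C]GlcNAc and 2 mM cobalt acetate in Tris-HCl pH 7.5. Filtered TCA precipitate was counted by scintillation; values are scores 1–8 against polyoxin D (5 = same concentration).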

Substance	Relative activity Enzyme 2 [1]	MIC (minimum inhibitory concentration) [2] [mg/L]	MIC (minimum inhibitory concentration) [3] [mg/L]	MIC (minimum inhibitory concentration) [4] [mg/L]	MIC (minimum inhibitory concentration) [5] [mg/L]	MIC (minimum inhibitory concentration) [6] [mg/L]	MIC (minimum inhibitory concentration) [7] [mg/L]	MIC (minimum inhibitory concentration) [8] [mg/L]	MIC (minimum inhibitory concentration) [9] [mg/L]	MIC (minimum inhibitory concentration) [10] [mg/L]	MIC (minimum inhibitory concentration) [11] [mg/L]	MIC (minimum inhibitory concentration) [12] [mg/L]	MIC (minimum inhibitory concentration) [13] [mg/L]	Relative activity Enzyme 1 [14]
13-(4-tert-Butylbenzyl)-9-O-(4-tert-butylbenzyl)berberrubine chloride [Compound No. 47]	5 (A compound having the same inhibitory activity as that of polyoxin D at the same concentration was given the value 5)	1	1	4	8	2	4	8	4	8	4	8	1	2 (Compounds having the inhibitory activity at 2-fold, 4-fold, 8-fold and 16-fold higher concentrations than that of polyoxin D were given the values of 4, 3, 2 and 1, respectively)
13-(4-tert-Butylbenzyl)-9-O-(6-chlorohexyl)berberrubine chloride [Compound No. 44]	6 (compounds having the inhibitory activity at ½, ¼ and ⅛ lower concentrations than that of polyoxin D were given the values of 6, 7 and 8, respectively)	0.5	0.5	2	2	1	1	8	2	8	2	4	0.5	2 (Compounds having the inhibitory activity at 2-fold, 4-fold, 8-fold and 16-fold higher concentrations than that of polyoxin D were given the values of 4, 3, 2 and 1, respectively)
13-(4-tert-Butylbenzyl)-9-O-(6-chlorohexyl)berberrubine iodide [Compound No. 12]	5 (A compound having the same inhibitory activity as that of polyoxin D at the same concentration was given the value 5)	0.5	0.5	2	2	1	1	8	2	8	2	4	0.5	2 (Compounds having the inhibitory activity at 2-fold, 4-fold, 8-fold and 16-fold higher concentrations than that of polyoxin D were given the values of 4, 3, 2 and 1, respectively)
13-(4-tert-Butylbenzyl)-9-O-allylberberrubine chloride [Compound No. 45]	6 (compounds having the inhibitory activity at ½, ¼ and ⅛ lower concentrations than that of polyoxin D were given the values of 6, 7 and 8, respectively)	1	1	8	4	2	2	8	2	8	8	4	1	2 (Compounds having the inhibitory activity at 2-fold, 4-fold, 8-fold and 16-fold higher concentrations than that of polyoxin D were given the values of 4, 3, 2 and 1, respectively)
13-(4-tert-Butylbenzyl)-9-O-allylberberrubine iodide [Compound No. 13]	5 (A compound having the same inhibitory activity as that of polyoxin D at the same concentration was given the value 5)	1	1	8	4	2	2	8	2	8	8	4	1	2 (Compounds having the inhibitory activity at 2-fold, 4-fold, 8-fold and 16-fold higher concentrations than that of polyoxin D were given the values of 4, 3, 2 and 1, respectively)
13-(4-tert-Butylbenzyl)-9-O-crotylberberrubine bromide [Compound No. 14]	5 (A compound having the same inhibitory activity as that of polyoxin D at the same concentration was given the value 5)	0.5	0.5	4	4	1	1	8	1	4	2	4	0.5	2 (Compounds having the inhibitory activity at 2-fold, 4-fold, 8-fold and 16-fold higher concentrations than that of polyoxin D were given the values of 4, 3, 2 and 1, respectively)
13-(4-tert-Butylbenzyl)-9-O-crotylberberrubine chloride [Compound No. 46]	6 (compounds having the inhibitory activity at ½, ¼ and ⅛ lower concentrations than that of polyoxin D were given the values of 6, 7 and 8, respectively)	0.5	0.5	4	4	1	1	8	1	4	2	4	0.5	2 (Compounds having the inhibitory activity at 2-fold, 4-fold, 8-fold and 16-fold higher concentrations than that of polyoxin D were given the values of 4, 3, 2 and 1, respectively)

Reference: US7915276B2, “Berberrubine derivatives having antifungal activities” (priority 2006, dated 2011)
